The source of these data is article PMC12745320 (2025).

For experiment [1], the system named is PTL-1 (DNA, aptamer) GACGACGGCCAAGCTAACGGCTGCTAAGCATGTGGAGTCGTC
Description: ThT fluorescence displacement. The conditions noted are these: 150 mM NaCl, 5 mM MgCl2 (main text; supplement: 2.0 mM MgCl2); 10 mM MES (supplement: 20 mM), pH 6.0; ThT displaced; tested at 200 μM.

Experiment [2] shares this test system. Description: ThT fluorescence. The note with it: 150 mM NaCl, 5 mM MgCl2 (main text; supplement: 2.0 mM MgCl2); 10 mM MES (supplement: 20 mM), pH 6.0; 1.0 μM aptamer, 2.0 μM ThT; described as non-specific binding.
Experiment [3] deals with PTL-1b (DNA, aptamer) GACGACGGCGAAGCTAACGGCTGCTAAGCATGTCGAGTCGTC
Description: ITC. The conditions noted are these: 150 mM NaCl, 5 mM MgCl2 (main text; supplement: 2.0 mM MgCl2); 10 mM MES (supplement: 20 mM), pH 6.0, 25 °C; typically 1.0 mM PTL in syringe.

Experiment [4] deals with PTL-1 (DNA, aptamer) GACGACGGCCAAGCTAACGGCTGCTAAGCATGTGGAGTCGTC
Description: ITC. The note with it: 150 mM NaCl, 5 mM MgCl2 (main text; supplement: 2.0 mM MgCl2); 10 mM MES (supplement: 20 mM), pH 6.0, 25 °C; 20 μM aptamer.

The test system is the same in experiment [5]. Description: ThT fluorescence displacement titration. The note with it: 150 mM NaCl, 5 mM MgCl2 (main text; supplement: 2.0 mM MgCl2), 10 mM MES (supplement: 20 mM), pH 6.0, ThT 2.0 μM displaced, 1.0 μM aptamer.
Experiment [6] relates to PTL-1a (DNA, aptamer) GACGACTCCAAGAATCCGGCTGCTAAGCATGTGGAGTCGTC
Description: ITC. The conditions noted are these: 150 mM NaCl, 5 mM MgCl2 (main text; supplement: 2.0 mM MgCl2); 10 mM MES (supplement: 20 mM), pH 6.0, 25 °C; typically 1.0 mM PTL in syringe.

Experiment [7] has as its system PTL-1c (DNA, aptamer) GACGACGGCCAAGAATCCGGCTGCTAAGCATGTGGAGTCGTC
Description: ITC. The conditions noted are these: 150 mM NaCl, 5 mM MgCl2 (main text; supplement: 2.0 mM MgCl2); 10 mM MES (supplement: 20 mM), pH 6.0, 25 °C; typically 1.0 mM PTL in syringe.

As to `C=C1[C@@H](O)[C@@H]2O[C@]3(CC[C@H](/C=C/[C@@H](C)[C@@H]4CC(C)=C[C@@]5(O[C@H](C[C@@](C)(O)C(=O)O)CC[C@H]5O)O4)O3)CC[C@H]2O[C@@H]1[C@@H](O)C[C@H](C)[C@H]1O[C@@]2(CCCCO2)CC[C@H]1C`, the binding entry in experiment [1] is recorded as “no”.

In the case of `CC1(C)S[C@@H]2[C@H](NC(=O)Cc3ccccc3)C(=O)N2[C@H]1C(=O)O`, the binding result in experiment [1] is “no”.

`CC1(C)S[C@@H]2[C@H](NC(=O)[C@H](N)c3ccccc3)C(=O)N2[C@H]1C(=O)O`: in experiment [1], the binding result is recorded as “no”.

Turning to `CCCC[C@@H](C)[C@@H](OC(=O)C[C@@H](CC(=O)O)C(=O)O)[C@H](C[C@@H](C)C[C@H](O)CCCC[C@@H](O)C[C@H](O)[C@H](C)N)OC(=O)C[C@@H](CC(=O)O)C(=O)O`, the binding result in experiment [1] was “no”.

`COc1cc(NS(=O)(=O)c2ccc(N)cc2)nc(OC)n1`: the binding result in experiment [1] is reported as “no”.

For the molecule `CS(=O)(=O)c1ccc([C@@H](O)[C@@H](CO)NC(=O)C(Cl)Cl)cc1`, the binding entry in experiment [1] is given as “no”.

As for `C[C@@H]1C[C@H]2[C@@H]3CCC4=CC(=O)C=C[C@]4(C)[C@@]3(F)[C@@H](O)C[C@]2(C)[C@@]1(O)C(=O)CO`, the binding entry in experiment [1] is “no”.

Regarding `C[C@@H]1Cc2c(Cl)cc(C(=O)N[C@@H](Cc3ccccc3)C(=O)O)c(O)c2C(=O)O1`, the binding result in experiment [1] is “no”.

As to `C[C@H]1CCCC(=O)CCC/C=C/c2cc(O)cc(O)c2C(=O)O1`, in experiment [1], the binding entry is reported as “no”.

In the case of `Cc1ccc2c(c1)sc(-c1ccc(N(C)C)cc1)[n+]2C`, the binding result in experiment [2] was “yes”.

Consider `Cc1ncc([N+](=O)[O-])n1CCO`, for which the binding result in experiment [1] was “no”.

Take `NC(=O)N1c2ccccc2C=Cc2ccccc21`: the binding entry in experiment [1] is listed as “no”.

Take `Nc1ccc(S(=O)(=O)Nc2cnc3ccccc3n2)cc1`: the binding result in experiment [1] is “no”.

Turning to `O=C(N[C@H](CO)[C@H](O)c1ccc([N+](=O)[O-])cc1)C(Cl)Cl`, the binding entry in experiment [1] was “no”.

What is called Kd is the equilibrium constant for the complex coming apart. By apparent Kd is commonly meant a dissociation constant that holds for the conditions of the assay. For the molecule `O=C1C=C2C(=CCOC2O)O1` (stereo not shown), the binding entry in experiment [3], in experiment [6] and in experiment [7] was “no” throughout. In experiment [4], this molecule came in with a Kd of 12.5 µM. Besides, the “apparent Kd” value in experiment [5] was determined as 18.4 µM.
